Experimental data: patent US10077261B2, “Imidazolin-5-one derivative useful as FASN inhibitors for the treatment of cancer” (Janssen Pharmaceutica NV, priority 2012, dated 2018)

Columns and labels:
[1] = molecular target: T1, hFASN enzyme (full length) (Homo sapiens, UniProt P49327); experiment: Fatty Acid Synthase (FASN) inhibition scintillation proximity assay; assay type: biochemical; settings: for inhibition at 10 µM: read-out: Human FASN % inhibition @ 10 μM, 10 μM test compound; for IC50: read-out: Human FASN pIC50 (converted)
T1 construct: 10 μL hFASN enzyme (full length, 300 ng, purified in house); made in house
T1 sequence (P49327 whole entry): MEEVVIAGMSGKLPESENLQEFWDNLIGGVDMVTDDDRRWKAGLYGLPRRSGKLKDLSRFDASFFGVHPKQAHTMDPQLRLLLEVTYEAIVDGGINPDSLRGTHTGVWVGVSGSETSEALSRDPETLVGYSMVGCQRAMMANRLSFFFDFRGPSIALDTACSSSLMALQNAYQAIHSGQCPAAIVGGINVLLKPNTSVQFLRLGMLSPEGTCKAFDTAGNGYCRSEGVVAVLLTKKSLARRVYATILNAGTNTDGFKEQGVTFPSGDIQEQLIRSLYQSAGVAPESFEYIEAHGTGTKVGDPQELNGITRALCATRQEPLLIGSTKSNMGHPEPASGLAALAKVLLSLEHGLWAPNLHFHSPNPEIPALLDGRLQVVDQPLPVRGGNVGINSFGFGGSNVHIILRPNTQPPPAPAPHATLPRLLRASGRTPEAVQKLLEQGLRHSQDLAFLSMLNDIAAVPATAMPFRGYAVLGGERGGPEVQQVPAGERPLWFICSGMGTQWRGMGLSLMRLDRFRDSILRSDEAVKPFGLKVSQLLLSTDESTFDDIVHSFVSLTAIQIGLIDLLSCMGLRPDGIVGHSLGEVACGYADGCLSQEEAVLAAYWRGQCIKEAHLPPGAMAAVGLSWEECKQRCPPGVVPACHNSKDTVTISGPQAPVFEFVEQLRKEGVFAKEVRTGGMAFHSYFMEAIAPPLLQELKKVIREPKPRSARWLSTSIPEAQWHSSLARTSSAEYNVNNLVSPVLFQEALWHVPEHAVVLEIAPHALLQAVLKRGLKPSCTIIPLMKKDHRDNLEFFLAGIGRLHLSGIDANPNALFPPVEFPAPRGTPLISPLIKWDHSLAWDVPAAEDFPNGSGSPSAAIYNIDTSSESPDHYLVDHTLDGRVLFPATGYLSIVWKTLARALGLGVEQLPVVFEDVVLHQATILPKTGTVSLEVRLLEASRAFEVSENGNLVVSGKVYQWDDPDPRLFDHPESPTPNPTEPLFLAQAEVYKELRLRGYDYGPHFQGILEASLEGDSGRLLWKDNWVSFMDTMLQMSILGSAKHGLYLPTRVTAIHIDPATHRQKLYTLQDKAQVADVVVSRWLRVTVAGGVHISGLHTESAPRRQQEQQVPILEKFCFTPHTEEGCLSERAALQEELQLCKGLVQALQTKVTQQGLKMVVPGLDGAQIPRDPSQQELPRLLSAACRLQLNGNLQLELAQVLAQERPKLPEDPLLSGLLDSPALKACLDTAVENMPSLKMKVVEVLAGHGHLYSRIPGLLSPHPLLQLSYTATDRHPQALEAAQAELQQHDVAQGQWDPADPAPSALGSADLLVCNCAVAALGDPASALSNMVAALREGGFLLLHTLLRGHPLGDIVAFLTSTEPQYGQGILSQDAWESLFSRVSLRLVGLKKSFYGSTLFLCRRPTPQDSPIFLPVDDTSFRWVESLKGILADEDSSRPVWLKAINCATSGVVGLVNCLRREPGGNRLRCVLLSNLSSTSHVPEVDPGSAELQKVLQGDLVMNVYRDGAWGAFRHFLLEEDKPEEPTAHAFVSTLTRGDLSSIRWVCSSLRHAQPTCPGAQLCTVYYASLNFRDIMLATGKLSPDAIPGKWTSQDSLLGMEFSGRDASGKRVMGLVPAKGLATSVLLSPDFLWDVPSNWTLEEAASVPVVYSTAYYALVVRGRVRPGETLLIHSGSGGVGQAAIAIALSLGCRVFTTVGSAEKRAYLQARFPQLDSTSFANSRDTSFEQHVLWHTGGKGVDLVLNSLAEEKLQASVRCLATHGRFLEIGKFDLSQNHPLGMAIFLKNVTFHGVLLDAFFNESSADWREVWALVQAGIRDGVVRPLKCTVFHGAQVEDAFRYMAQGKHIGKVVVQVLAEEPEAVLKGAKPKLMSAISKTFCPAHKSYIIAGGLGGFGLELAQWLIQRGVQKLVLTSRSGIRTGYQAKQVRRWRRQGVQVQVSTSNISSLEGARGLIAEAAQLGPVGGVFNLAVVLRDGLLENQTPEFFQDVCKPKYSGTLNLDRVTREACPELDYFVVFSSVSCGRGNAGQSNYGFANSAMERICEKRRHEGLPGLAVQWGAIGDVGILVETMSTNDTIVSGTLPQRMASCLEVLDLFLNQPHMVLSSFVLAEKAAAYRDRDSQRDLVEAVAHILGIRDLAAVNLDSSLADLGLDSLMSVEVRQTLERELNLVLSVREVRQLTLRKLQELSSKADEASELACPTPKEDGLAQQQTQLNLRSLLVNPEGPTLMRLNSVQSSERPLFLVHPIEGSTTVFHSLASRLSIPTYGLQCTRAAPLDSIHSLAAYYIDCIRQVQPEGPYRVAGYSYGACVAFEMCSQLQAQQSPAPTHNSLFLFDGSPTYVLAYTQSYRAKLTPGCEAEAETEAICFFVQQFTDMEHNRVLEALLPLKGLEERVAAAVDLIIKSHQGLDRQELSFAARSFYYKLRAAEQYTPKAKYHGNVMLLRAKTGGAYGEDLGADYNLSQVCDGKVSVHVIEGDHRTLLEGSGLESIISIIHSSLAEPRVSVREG
Outline: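 Full-length in-house purified enzyme (300 ng) was tested in 100 mM KH2PO4 pH 7.5, 1 mM DTT with ³H-acetyl-CoA and malonyl-CoA as substrates; compounds ranged 0.01–30 μM. Reactions were stopped with streptavidin imaging beads, read by LEADseeker at 610 nm, and fitted to a 4-parameter logistic curve.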

[2] = molecular target: Fatty Acid Synthase Keto-reductase Domain (FASN KR) (Homo sapiens, UniProt P49327); experiment: Fatty Acid Synthase keto-reductase domain (FASN KR) inhibition, NADPH oxidation at 340 nm
Fatty Acid Synthase Keto-reductase Domain (FASN KR), sequence (P49327 whole entry, the tested form may be a part): as the sequence (P49327 whole entry) above
Protocol: After 20 minutes incubation at room temperature the plate was measured again (T2).
The decrease in absorbance was calculated as (Absorbance before incubation T1)−(Absorbance following incubation T2).
A plot of Controlmin versus test compound concentration was fitted to a 4-parameter logistic curve using a non-linear least squares regression method.

[3] = system: PC-3M-Luc-C6 prostate cells; experiment: In vitro PC-3M-Luc-C6 prostate cell proliferation assay in lipid reduced medium; assay type: cell-based; settings: 96 h, read-out: pIC50 PC-3M-Luc-C6 prostate cell (converted)
[4] = system: LNCaP-Vancouver prostate cells; experiment: In vitro LNCaP Vancouver prostate cell proliferation assay in lipid reduced medium; assay type: cell-based; settings: read-out: pIC50 LNCaP_Vancouver prostate cell (converted)
A2780 ovarian cells [5] = experiment: A2780 ovarian cell proliferation assay in lipid reduced medium, without palmitate (MTT); assay type: cell-based; settings: Homo sapiens, A2780, 96 h; read-out: pIC50 A2780 Ovarian Cell, Without Palmitate (converted)
A2780 ovarian cells [6] = experiment: A2780 ovarian cell proliferation assay in lipid reduced medium, with palmitate (MTT); assay type: cell-based; settings: Homo sapiens, A2780, 96 h; read-out: pIC50 A2780 Ovarian Cell, With Palmitate (converted)
Outline: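 Seeded cells were switched next day to lipid-reduced serum, exposed to compound and 25 μM palmitate complexed with fatty-acid-free BSA, and incubated 96 h. Proliferation was then determined by MTT absorbance at 544 nm, with a best-fit curve of signal against concentration.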

Row | SMILES | inhibition at 10 µM [1] [%] | IC50 [1] [nM] | IC50 [2] [nM] | IC50 [3] [nM] | IC50 [4] [nM] | IC50 (A2780 ovarian cells [5]) [nM] | IC50 (A2780 ovarian cells [6]) [nM]
1 | O=C(C1CC1)N1CC(CN2C(=O)C3(CC3)N=C2c2ccc(-c3ccc4c(cnn4CC4CC4)c3)cc2F)C1 [compound 523, 6-{[1-(Cyclopropylcarbonyl)azetidin-3-yl]methyl}-5-{4-[1-(cyclopropylmethyl)-1H-indazol-5-yl]-2-fluorophenyl}-4,6-diazaspiro[2.4]hept-4-en-7-one] | 92 | 513 | 1480 | 1170 | 3240 | 676 | > 10000
2 | COc1cccc2cc(-c3ccc(C4=NC5(CC5)C(=O)N4CC4CN(C(=O)C5CC5)C4)c(F)c3)ccc12 [compound 635, 6-{[1-(Cyclopropylcarbonyl)azetidin-3-yl]methyl}-5-[2-fluoro-4-(5-methoxynaphthalen-2-yl)phenyl]-4,6-diazaspiro[2.4]hept-4-en-7-one] | 97 | 219 | 1350 | 355 | 1020 | 129 | > 10000
3 | O=C(C1CC1)N1CC[C@H](CN2C(=O)C3(CC3)N=C2c2ccc(-c3ccc(-c4cccc(Cl)c4)cc3)cc2)C1 [compound 412, 5-(3″-Chloro-1,1′:4′,1″-terphenyl-4-yl)-6-{[(3S)-1-(cyclopropylcarbonyl)pyrrolidin-3-yl]methyl}-4,6-diazaspiro[2.4]hept-4-en-7-one] | 96 | 324 | 427 | 575 | 457 | 1620 | > 10000
4 | Cc1cc(-c2ccc3sccc3c2)ccc1C1=NC2(CC2)C(=O)N1CC1CN(C(=O)C2CC2)C1 [compound 288] | 107 | 26.9 | 53.7 | 77.6 | 537 | ~107 | > 10000
5 | Cc1ccc2ccc(-c3ccc(C4=NC5(CC5)C(=O)N4CC4CN(C(=O)C5(C)CC5)C4)c(C)c3)cc2n1 [compound 576, 6-({1-[(1-Methylcyclopropyl)carbonyl]azetidin-3-yl}methyl)-5-[2-methyl-4-(2-methylquinolin-7-yl)phenyl]-4,6-diazaspiro[2.4]hept-4-en-7-one] | 99 | 380 | 676 | 676 | 2140 | 288 | > 10000
6 | O=C(C1CC1)N1CC[C@@H](CN2C(=O)C3(CCCC3)N=C2c2ccc(-c3ccc4[nH]cnc4c3)cc2F)C1 [compound 877, (R)-2-(4-(1H-benzo[d]imidazol-5-yl)-21-fluorophenyl)-3-((1-(cyclopropanecarbonyl)pyrrolidin-3-yl)methyl)-1,3-diazaspiro[4.4]non-1-en-4-one] | 103 | 33.9 | 74.1 | 45.7 | ~407 | 21.4 | > 10000
7 | O=C(N1CCCC1)N1CC(CN2C(=O)C3(CCOCC3)N=C2c2ccc(-c3ccc4cccnc4c3)cc2)C1 [compound 701, 3-{[1-(Pyrrolidin-1-ylcarbonyl)azetidin-3-yl]methyl}-2-(4-quinolin-7-ylphenyl)-8-oxa-1,3-diazaspiro[4.5]dec-1-en-4-one] | 95 | 479 | 3890 | 1260 | 4570 | 891 | > 10000
8 | COCc1c2ccc(-c3ccc(C4=NC5(CC5)C(=O)N4C[C@@H]4CCN(C(=O)C5CC5)C4)cc3)cc2nn1C [compound 486, 6-{[(3R)-1-(Cyclopropylcarbonyl)pyrrolidin-3-yl]methyl}-5-{4-[3-(methoxymethyl)-2-methyl-2H-indazol-6-yl]phenyl}-4,6-diazaspiro[2.4]hept-4-en-7-one] | 81 | 1510 | 2630 | ~2820 | 4470 | ~2190 | > 10000
9 | NC(=O)c1cccc(-c2ccc(C3=NC4(CC4)C(=O)N3C[C@@H]3CCN(C(=O)C4CC4)C3)cc2)c1 [compound 494, 4′-(6-{[(3R)-1-(Cyclopropylcarbonyl)pyrrolidin-3-yl]methyl}-7-oxo-4,6-diazaspiro[2.4]hept-4-en-5-yl)biphenyl-3-carboxamide] | 95 | 219 | 661 | 891 | 4680 | 692 | > 10000
10 | O=C(C1CC1)N1CC[C@@H](CN2C(=O)C3(CC3)N=C2c2ccc(-c3ccc4c(c3)COCC4)cc2)C1 [compound 453, 6-{[(3R)-1-(Cyclopropylcarbonyl)pyrrolidin-3-yl]methyl}-5-[4-(3,4-dihydro-1H-2-benzopyran-7-yl)phenyl]-4,6-diazaspiro[2.4]hept-4-en-7-one] | 94 | 245 | 1120 | 1620 | 2950 | 2140 | > 10000
11 | Cn1cc(-c2ccc(-c3ccc(C4=NC5(CC5)C(=O)N4C[C@@H]4CCN(C(=O)C5CC5)C4)c(F)c3)cc2)cn1 [compound 323, (R)-6-((1-(cyclopropanecarbonyl)pyrrolidin-3-yl)methyl)-5-(3-fluoro-4′-(1-methyl-1H-pyrazol-4-yl)-[1,1′-biphenyl]-4-yl)-4,6-diazaspiro[2.4]hept-4-en-7-one] | 101 | 25.1 | 44.7 | 8.32 | 33.1 | ~2.88 | > 10000
12 | O=C(C1CC1)N1CC[C@@H](CN2C(=O)C3(CC3)N=C2c2ccc(-c3c[nH]c4ccccc34)cc2F)C1 [compound 261, (R)-6-((1-(cyclopropanecarbonyl)pyrrolidin-3-yl)methyl)-5-(2-fluoro-4-(1H-indol-3-yl)phenyl)-4,6-diazaspiro[2.4]hept-4-en-7-one] | 98 | 55 | 89.1 | 21.4 | ~102 | 6.61 | > 10000
13 | Cc1nn(C)c2ccc(-c3ccc(C4=NC5(CC5)C(=O)N4C[C@@H]4CCN(C(=O)C5CC5)C4)cc3)cc12 [compound 218, (R)-6-((1-(cyclopropanecarbonyl)pyrrolidin-3-yl)methyl)-5-(4-(1,3-dimethyl-1H-indazol-5-yl)phenyl)-4,6-diazaspiro[2.4]hept-4-en-7-one] | 95 | 72.4 | 102 | 72.4 | 417 | 85.1 | > 10000
14 | Cc1cc(-c2ccc3c(cnn3C)c2)ccc1C1=NC2(CC2)C(=O)N1CC1CN(C(=O)C2CCCO2)C1 (stereo in doubt) [compound 206, (S)-5-(2-methyl-4-(1-methyl-1H-indazol-5-yl)phenyl)-6-((1-(tetrahydro-furan-2-carbonyl)azetidin-3-yl)methyl)-4,6-diazaspiro[2.4]hept-4-en-7-one] | 101 | 37.2 | 75.9 | 19.1 | 100 | ~10.5 | > 10000
15 | O=C(C1CC1)N1CC[C@@H](CN2C(=O)C3(CC3)N=C2c2ccc(-c3nc4ccccc4o3)cc2F)C1 [compound 251, (R)-5-(4-(benzo[d]oxazol-2-yl)-2-fluorophenyl)-6-((1-(cyclopropanecarbonyl)pyrrolidin-3-yl)methyl)-4,6-diazaspiro[2.4]hept-4-en-7-one] | 101 | 32.4 | 42.7 | ~41.7 | 138 | 72.4 | > 10000
16 | O=C(C1CC1)N1CC(CN2C(=O)C3(CC3)N=C2c2ccc(-c3nc4ccc(F)cc4s3)cc2F)C1 [compound 271, 6-((1-(cyclopropanecarbonyl)azetidin-3-yl)methyl)-5-(2-fluoro-4-(6-fluorobenzo[d]thiazol-2-yl)phenyl)-4,6-diazaspiro[2.4]hept-4-en-7-one] | 104 | 56.2 | 166 | 97.7 | 417 | ~74.1 | > 10000
17 | Cc1cc(-c2ccc3c(c2)cc(C)n3C)ccc1C1=NC2(CC2)C(=O)N1CC1CN(C(=O)C2CC2)C1 [compound 582, 6-{[1-(Cyclopropylcarbonyl)azetidin-3-yl]methyl}-5-[4-(1,2-dimethyl-1H-indol-5-yl)-2-methylphenyl]-4,6-diazaspiro[2.4]hept-4-en-7-one] | 103 | 324 | 1200 | 794 | 3240 | ~631 | > 10000
